Drawing on patent US10214534B2, “Substituted 2-phenyl (AZA)benzofuran compounds for the treatment of hepatitis C” (BRISTOL-MYERS SQUIBB COMPANY, priority 2014, dated 2019), this text covers EC50 for 44 molecules.

This assay deals with genotype 1b (Con-1) HCV replicon. Nature of the assay: HCV replicon luciferase assay. It counts as cell-based. The following applies: Hepatitis C virus, 72 h, genotype 1b replicon, Huh-7, Renilla luciferase, 3 days. The protocol:
The cell lines used to evaluate compounds consist of a human hepatocyte derived cell line (Huh-7) that constitutively expresses a genotype 1b (Con-1) HCV replicon or a genotype 1b (Con-1) HCV replicon with an asparagine replacing the cysteine at amino acid 316, or a genotype 2a (JFH-1) replicon, containing a Renilla luciferase reporter gene. These cells were maintained in Dulbecco's modified Eagle medium (DMEM) containing 10% FBS, 100 U/mL penicillin/streptomycin and 1.0 mg/mL G418.
To evaluate compound efficacy, titrated compounds were transferred to sterile 384-well tissue culture treated plates, and the plates were seeded with HCV replicon cells (50 μL at a density of 2.4×10^3 cells/well) in DMEM containing 4% FBS (final DMSO concentration at 0.5%). After 3 days incubation at 37° C., cells were analyzed for Renilla Luciferase activity using the EnduRen substrate (Promega cat #E6485) according to the manufacturer's directions. Briefly, the EnduRen substrate was diluted in DMEM and then added to the plates to a final concentration of 7.5 μM. The plates were incubated for at least 1 h at 37° C. then read on a Viewlux Imager (PerkinElmer) using a luminescence program. The 50% effective concentration (EC50) was calculated using the four-parameter logistic formula noted above.

Where two headings read alike, the source gives them in different places.

For the molecule `CCN(c1cc2oc(-c3ccc(Oc4ccccc4)cc3)c(C(=O)NC)c2cc1-c1cccc(C(=O)NC(C)(C)C)c1)S(C)(=O)=O` [Compound 1001], the EC50 (read-out: EC50 1b (class)) was < 0.1 µM.

As for `CCN(c1cc2oc(-c3ccc(Oc4ccc(F)cc4)cc3)c(C(=O)NC)c2cc1-c1cccc(C(=O)NC(C)(C)C)c1)S(C)(=O)=O` [Compound 1002], the EC50 (read-out: EC50 1b (class)) was < 0.1 µM.

As to `CCN(c1cc2oc(-c3ccc(Oc4cccc(F)c4)cc3)c(C(=O)NC)c2cc1-c1cccc(C(=O)NC(C)(C)C)c1)S(C)(=O)=O` [Compound 1003], the EC50 is < 0.1 µM (read-out: EC50 1b (class)) and 0.0023 µM (read-out: EC50 (uM) 1b).

In the case of `CCN(c1cc2oc(-c3ccc(Oc4ccccc4F)cc3)c(C(=O)NC)c2cc1-c1cccc(C(=O)NC(C)(C)C)c1)S(C)(=O)=O` [Compound 1004], the EC50 (read-out: EC50 1b (class)) was < 0.1 µM.

As to `CCN(c1cc2oc(-c3ccc(Oc4ccc(OC)cc4)cc3)c(C(=O)NC)c2cc1-c1cccc(C(=O)NC(C)(C)C)c1)S(C)(=O)=O` [Compound 1005], the EC50 is, setting by setting: (read-out: EC50 1b (class)) 0.1 to 1 µM; (read-out: EC50 (uM) 1b) 0.12 µM.

For the molecule `CCN(c1cc2oc(-c3ccc(Oc4cccc(OC)c4)cc3)c(C(=O)NC)c2cc1-c1cccc(C(=O)NC(C)(C)C)c1)S(C)(=O)=O` [Compound 1006], the EC50 (read-out: EC50 1b (class)) is < 0.1 µM.

`CCN(c1cc2oc(-c3ccc(Oc4ccccc4OC)cc3)c(C(=O)NC)c2cc1-c1cccc(C(=O)NC(C)(C)C)c1)S(C)(=O)=O` [Compound 1007]: the EC50 (read-out: EC50 1b (class)) is < 0.1 µM and the EC50 (read-out: EC50 (uM) 1b) was determined as 0.024 µM.

With `CCN(CC)c1cc2oc(-c3ccc(Oc4cccc(F)c4)cc3)c(C(=O)NC)c2cc1-c1ccc(O)c(C(N)=O)c1` [Compound 1008], the EC50 is, setting by setting: (read-out: EC50 1b (class)) < 0.1 µM; (read-out: EC50 (uM) 1b) 0.013 µM.

As for `CCN(CC)c1cc2oc(-c3ccc(Oc4cccc(F)c4)cc3)c(C(=O)NC)c2cc1-c1ccc(OC)c(C(N)=O)c1` [Compound 1010], the EC50 (read-out: EC50 1b (class)) was 0.1 to 1 µM.

For the molecule `CCN(CC)c1cc2oc(-c3ccc(Oc4cccc(F)c4)cc3)c(C(=O)NC)c2cc1-c1cccc(C(=O)NC(C)(C)C(=O)O)c1` [Compound 1012], the EC50 was > 1 µM (read-out: EC50 1b (class)) and 1.47 µM (read-out: EC50 (uM) 1b).

Turning to `CCNc1cc2oc(-c3ccc(Oc4cccc(F)c4)cc3)c(C(=O)NC)c2cc1-c1cccc(C(=O)NC(C)(C)CC(=O)O)c1` [Compound 1013], the 50% effective concentration (EC50) (read-out: EC50 1b (class)) was in the range of 0.1 to 1 µM.

Turning to `CCOC(=O)c1c(-c2ccc(Oc3cccc(O)c3)cc2)oc2cc([N+](=O)[O-])c(O)cc12` [Compound 1014], the EC50 was > 1 µM (read-out: EC50 1b (class)) and 9.94 µM (read-out: EC50 (uM) 1b).

On to `CCN(c1cc2oc(-c3ccc(Oc4cccc(F)c4)cc3)c(C(=O)NC)c2cc1-c1cccc(C(=O)NC2(C)CC2)c1)S(C)(=O)=O` [Compound 1015], for which the EC50 (read-out: EC50 1b (class)) was > 1 µM.

With `CCN(c1cc2oc(-c3ccc(Oc4cccc(Cl)c4)cc3)c(C(=O)NC)c2cc1-c1cccc(C(N)=O)c1)S(C)(=O)=O` [Compound 1016], where the note is “read-out: EC50 1b (class)”, the 50% effective concentration (EC50) was < 0.1 µM.

`CCN(c1cc2oc(-c3ccc(Oc4cccc(F)c4)cc3)c(C(=O)NC)c2cc1-c1cccc(C(=O)N[C@@H](C)C(F)(F)F)c1)S(C)(=O)=O` [Compound 1017]: the EC50 runs as follows: (read-out: EC50 1b (class)) < 0.1 µM; (read-out: EC50 (uM) 1b) 0.0062 µM.

`CCN(c1cc2oc(-c3ccc(Oc4cccc(F)c4)cc3)c(C(=O)NC)c2cc1-c1cccc(C(N)=O)c1)S(C)(=O)=O` [Compound 1018]: the EC50 (read-out: EC50 1b (class)) was < 0.1 µM.

`CCN(c1cc2oc(-c3ccc(Oc4cccc(Cl)c4)cc3)c(C(=O)NC)c2cc1-c1cccc(C(=O)N[C@@H](C)C(F)(F)F)c1)S(C)(=O)=O` [Compound 1019]: the EC50 (read-out: EC50 1b (class)) is < 0.1 µM.

As for `CNC(=O)c1c(-c2ccc(Oc3cccc(F)c3)cc2)oc2cc(N(C)S(C)(=O)=O)c(-c3cccc(C(=O)NCC(F)(F)F)c3)cc12` [Compound 1020], the EC50 (read-out: EC50 1b (class)) was < 0.1 µM.

For the molecule `[2H]C([2H])([2H])C(NC(=O)c1cc(-c2cc3c(C(=O)NC)c(-c4ccc(Oc5cccc(F)c5)cc4)oc3cc2N(CC)S(C)(=O)=O)ccc1OC)(C([2H])([2H])[2H])C([2H])([2H])[2H]` [Compound 1021], where the note is “read-out: EC50 1b (class)”, the EC50 was < 0.1 µM.

Turning to `[2H]C([2H])([2H])C(NC(=O)c1cc(-c2cc3c(C(=O)NC)c(-c4ccc(Oc5ccc(F)cc5)cc4)oc3cc2N(CC)S(C)(=O)=O)ccc1OC)(C([2H])([2H])[2H])C([2H])([2H])[2H]` [Compound 1022], the EC50 (read-out: EC50 1b (class)) was < 0.1 µM.

With `CCN(c1cc2oc(-c3ccc(Oc4cccc(F)c4)cc3)c(C(=O)NC)c2cc1-c1cccc(C(=O)NCC(C)(C)CO)c1)S(C)(=O)=O` [Compound 1023], the EC50 is < 0.1 µM (read-out: EC50 1b (class)) and 0.0028 µM (read-out: EC50 (uM) 1b).

As for `CNC(=O)c1c(-c2ccc(Oc3ccc(F)cc3)cc2)oc2cc(N(C)S(C)(=O)=O)c(-c3cccc(C(=O)NCC(F)(F)F)c3)cc12` [Compound 1026], the EC50 (read-out: EC50 1b (class)) is < 0.1 µM.

Turning to `CNC(=O)c1c(-c2ccc(Oc3ccccc3)cc2)oc2nc(CCC(F)(F)F)c(-c3cccc(C(=O)NC(C)(C)C)c3)cc12` [Compound 2001], the EC50 (read-out: EC50 1b (class)) is < 0.1 µM.

Consider `CNC(=O)c1c(-c2ccc(Oc3ccc(C)cc3)cc2)oc2nc(CCC(F)(F)F)c(-c3cccc(C(=O)NC(C)(C)C)c3)cc12` [Compound 2002], for which the EC50 (read-out: EC50 1b (class)) is < 0.1 µM.

In the case of `CNC(=O)c1c(-c2ccc(Oc3ccc(OC)cc3)cc2)oc2nc(CCC(F)(F)F)c(-c3cccc(C(=O)NC(C)(C)C)c3)cc12` [Compound 2003], under “read-out: EC50 1b (class)”, the EC50 fell in the range of 0.1 to 1 µM.

Turning to `CNC(=O)c1c(-c2ccc(Oc3ccc(F)cc3)cc2)oc2nc(CCC(F)(F)F)c(-c3cccc(C(=O)NC(C)(C)C)c3)cc12` [Compound 2004], the EC50 (read-out: EC50 1b (class)) is < 0.1 µM.

Take `CNC(=O)c1c(-c2ccc(Oc3cccc(F)c3)cc2)oc2nc(CCC(F)(F)F)c(-c3cccc(C(=O)NC(C)(C)C)c3)cc12` [Compound 2005]: where the note is “read-out: EC50 1b (class)”, the EC50 is < 0.1 µM.

In the case of `CNC(=O)c1c(-c2ccc(Oc3ccccc3F)cc2)oc2nc(CCC(F)(F)F)c(-c3cccc(C(=O)NC(C)(C)C)c3)cc12` [Compound 2006], the EC50 (read-out: EC50 1b (class)) is < 0.1 µM.

`CNC(=O)c1c(-c2ccc(Oc3cccc(C)c3)cc2)oc2nc(CCC(F)(F)F)c(-c3cccc(C(=O)NC(C)(C)C)c3)cc12` [Compound 2007]: the EC50 (read-out: EC50 1b (class)) is < 0.1 µM.

With `CNC(=O)c1c(-c2ccc(Oc3ccccc3C)cc2)oc2nc(CCC(F)(F)F)c(-c3cccc(C(=O)NC(C)(C)C)c3)cc12` [Compound 2008], the EC50 (read-out: EC50 1b (class)) was < 0.1 µM.

Turning to `CNC(=O)c1c(-c2ccc(Oc3cccc(OC)c3)cc2)oc2nc(CCC(F)(F)F)c(-c3cccc(C(=O)NC(C)(C)C)c3)cc12` [Compound 2009], the EC50 (read-out: EC50 1b (class)) was < 0.1 µM.

As to `CNC(=O)c1c(-c2ccc(Oc3ccccc3OC)cc2)oc2nc(CCC(F)(F)F)c(-c3cccc(C(=O)NC(C)(C)C)c3)cc12` [Compound 2010], the half-maximal effective concentration (EC50) (read-out: EC50 1b (class)) was < 0.1 µM.

In the case of `CNC(=O)c1c(-c2ccc(Oc3cccnc3)cc2)oc2nc(CCC(F)(F)F)c(-c3cccc(C(=O)NC(C)(C)C)c3)cc12` [Compound 2011], the EC50 (read-out: EC50 1b (class)) is < 0.1 µM.

As for `CNC(=O)c1c(-c2ccc(Oc3ccccn3)cc2)oc2nc(CCC(F)(F)F)c(-c3cccc(C(=O)NC(C)(C)C)c3)cc12` [Compound 2012], the EC50 (read-out: EC50 1b (class)) was > 1 µM.

In the case of `CNC(=O)c1c(-c2ccc(Oc3ccc(C(=O)O)cc3)cc2)oc2nc(CCC(F)(F)F)c(-c3cccc(C(=O)NC(C)(C)C)c3)cc12` [Compound 2013], where the note is “read-out: EC50 1b (class)”, the EC50 is > 1 µM.

For `CNC(=O)c1c(-c2ccc(Oc3cccc(F)c3)cc2)oc2nc(CCC(F)(F)F)c(-c3ccc(OC)c(C(=O)NC4(c5ncccn5)CC4)c3)cc12` [Compound 2014], the EC50 (read-out: EC50 1b (class)) was < 0.1 µM.

Take `CCCCOc1ccc(-c2oc3nc(CCC(F)(F)F)c(-c4cccc(C(=O)NC(C)(C)C)c4)cc3c2C(=O)NC)cc1` [Compound 3001]: the EC50 (read-out: EC50 1b (class)) was < 0.1 µM.

Regarding `CNC(=O)c1c(-c2ccc(OCC(F)(F)F)cc2)oc2nc(CCC(F)(F)F)c(-c3cccc(C(=O)NC(C)(C)C)c3)cc12` [Compound 3002], the EC50 (read-out: EC50 1b (class)) was < 0.1 µM.

With `CNC(=O)c1c(-c2ccc(N3CCCC3)cc2)oc2nc(CCC(F)(F)F)c(-c3cccc(C(=O)NC(C)(C)C)c3)cc12` [Compound 4001], the EC50 (read-out: EC50 1b (class)) is > 1 µM.

On to `CNC(=O)c1c(-c2ccc(NCC(F)F)cc2)oc2nc(NCC(F)F)c(-c3cccc(C(=O)NC(C)(C)C)c3)cc12` [Compound 4002], for which the EC50 is < 0.1 µM (read-out: EC50 1b (class)) and 0.0094 µM (read-out: EC50 (uM) 1b).

Turning to `CNC(=O)c1c(-c2ccc(Sc3ccccc3)cc2)oc2nc(CCC(F)(F)F)c(-c3cccc(C(=O)NC(C)(C)C)c3)cc12` [Compound 5001], the EC50 is, setting by setting: (read-out: EC50 1b (class)) 0.1 to 1 µM; (read-out: EC50 (uM) 1b) 0.16 µM.

As for `CNC(=O)c1c(-c2ccc(C(C#N)C(N)=O)cc2)oc2nc(CCC(F)(F)F)c(-c3cccc(C(=O)NC(C)(C)C)c3)cc12` (stereo not drawn) [Compound 6001], the EC50 is 0.1 to 1 µM (read-out: EC50 1b (class)) and 0.34 µM (read-out: EC50 (uM) 1b).

As to `CCNc1nc2oc(-c3ccc(C)cc3)c(C(=O)NC)c2cc1-c1cccc(C(=O)NC(C)(C)C)c1` [Compound 6002, 5-(3-(tert-butylcarbamoyl)phenyl)-6-(ethylamino)-N-methyl-2-(p-tolyl)furo[2,3-b]pyridine-3-carboxamide], the EC50 runs as follows: (read-out: EC50 1b (class)) < 0.1 µM; (read-out: EC50 (uM) 1b) 0.0036 µM.

Consider `CCNc1nc2oc(-c3ccc(C)cc3)c(C(=O)NC)c2cc1-c1cccc(C(=O)NC2(C(F)(F)F)CC2)c1` [Compound 6003, 6-(ethylamino)-N-methyl-2-(p-tolyl)-5-(3-((1-(trifluoromethyl)cyclopropyl)carbamoyl)phenyl)furo[2,3-b]pyridine-3-carboxamide], for which the EC50 was < 0.1 µM (read-out: EC50 1b (class)) and 0.0061 µM (read-out: EC50 (uM) 1b).

Broadly, the EC50 is the concentration that produces a half-maximal response.
